# Reference: US12110255B2, “Additive formulation for reduction or prevention of microbially induced corrosion in concrete or cementitious material” (MICROBAN PRODUCTS COMPANY, priority 2017, dated 2024)
# Like-named read-outs stand apart in the source and are kept apart here.
# Key:
# Fusarium oxysporum = assay: Minimum Inhibitory Concentration (MIC) test, aqueous state; type: cell-based; conditions: for MIC: Fusarium oxysporum
# Method: (§1) Table 1 indicates the MIC values generated against Th. Novella, Fusarium and a combination of the two for two antifungal additives that were tested in the aqueous state.
# (§2) In addition to testing the active ingredients alone, MIC tests were conducted for combinations of the QS and the antifungal actives. An OIT active material was added to this test using the QS molecule to compatibilize the mixture, making the mixture water soluble so MIC testing was possible. Table 2 summarizes the MIC data generated for these actives:
# (§3) Testing was also conducted to determine whether the addition of the defoamer or mixing the QS and OIT together would have any effect on the microbial efficacy of these components.
# Aspergillus niger = assay: Minimum Inhibitory Concentration (MIC) test; type: cell-based; conditions: Table 5, Tributyl Phosphate Defoamer: No
# Method: as §3
# Starkeya + Fusarium = assay: Minimum Inhibitory Concentration (MIC) test, aqueous state; type: cell-based, Starkeya novella + Fusarium oxysporum; conditions: for MIC: Fusarium, read-out: Active Ingredient Minimum Inhibitory Concentration, Starkeya + Fusarium
# Method: as §1
# as §2, with “actives: […]” for “actives:”
# Starkeya novella = assay: as above; type: cell-based; conditions: Ancylobacter novellus, active ingredient alone
# Method: as §1
# as §2, with “actives: […]” for “actives:”
# [1] = Table 5, Tributyl Phosphate Defoamer: No, read-out: MIC, Fusarium oxysporum
# [2] = active ingredient alone, aqueous state
compound,measurement,setting,value
"CCCCCCCCn1sccc1=O [OIT, 2-Octyl-2H-isothiazol-3-one]",MIC,Fusarium oxysporum; [1],6.3 mg/L
same,MIC,Aspergillus niger,6.3 mg/L
"Oc1ccccc1-c1ccccc1.[Na] [P2, Sodium OrthophenylPhenol]",MIC,"Fusarium oxysporum; read-out: Active Ingredient Minimum Inhibitory Concentration, Fusarium oxysporum",250 mg/L
same,MIC,Starkeya + Fusarium,125 mg/L
"CCCCCCCCCCCCCCCCCC[N+](C)(C)CCC[Si](OC)(OC)OC.[Cl-] [QS, 1-Octadecanaminium, N,N-dimethyl-N-(3-(trimethoxysilyl)propyl)-, chloride]",MIC,Fusarium oxysporum; [1],15.6 mg/L
same,MIC,"Fusarium oxysporum; active ingredient alone, aqueous state, read-out: Active Ingredient Minimum Inhibitory Concentration, Fusarium oxysporum",15.6 mg/L
same,MIC,Starkeya + Fusarium; [2],31.3 mg/L
same,MIC,Starkeya novella,7.8 mg/L
same,MIC,Aspergillus niger,125 mg/L
Imazalil Sulphate [IF4],"Active Ingredient Minimum Inhibitory Concentration, Fusarium oxysporum",Fusarium oxysporum; [2],500 ppm
same,"Active Ingredient Minimum Inhibitory Concentration, Starkeya + Fusarium",Starkeya + Fusarium; [2],500 ppm
